{
  "source": "patent US20140255321A1",
  "about": "“Active Sunscreen Composition” (Rhode Island Hospital, priority 2008, published 2014)",
  "system": "Normal Human Dermal Fibroblast cells",
  "assay": "CometAssay of DNA damage in dermal fibroblasts exposed to a solar simulator under a protective layer",
  "assay_type": "cell-based",
  "details": "for Comet tail appearance / extent of DNA damage (in words): SYBR I Green visualisation after electrophoresis 25 minutes at 20 volts, FIGS. 2 and 3; for Comet tail appearance / extent of DNA damage (in words) / Integral of Student's Probability Density for Tail Length/Total Length: disodium salt",
  "source_text": "Using a model for human skin (confluent human dermal fibroblasts, Lonza CC-2511), a fluorescent dye was used to evaluate induction of […]. Stilbene-420 was selected for having a broad range of absorption in the UVB and UVA ranges while retaining a relatively narrow emission spectrum centered around 420 nm. A 2% solution of stilbene in water was used for this study.\nStilbene-420 was compared to both unshielded cells and commercial SPF 45 sunblock in their ability to protect Normal Human Dermal Fibroblast cells raised on Lonza FGM-2 media from exposure to the full power of a solar simulator. A CometAssay was used to assess DNA damage to the cells. The resulting data was filtered and analyzed with an Integral of Student's Probability Density.\nUsing Fibroblast Grown Medium with 10% FBS, normal Human Dermal Fibroblasts (obtained from Lonza Clonetics) were grown to confluence in a 12-well plate. After 6 days, one of the wells was harvested by scraping and stored at 4° C. Using custom aluminum holders, a UV-transparent quartz window was placed above each well, and space between the window and holder sealed with 5% agarose. The windows were then covered with 0.5 mL of 0.5% Stilbene 420 florescent dye in water, commercial SPF 45 sunblock or left alone. Then, the plate was exposed to a Solar Simulator for 22.5 minutes at full intensity. Afterwards, the cells were harvested by scraping and all the cells were suspended in low-melting point for the CometAssay using a kit produced by Trevigen. Though the results of DNA damage are often easy to see, for example, cell death, quantifying the extent to which this damage has occurred can be difficult. The CometAssay is a test measures fairly low levels of DNA Damage. The basic concept of the test is that, given more incipient DNA damage that is dealt, the more fragments of DNA are created and the smaller they become. By embedding the cells in a low melting point agarose gel and lysing them, release of these DNA fragments occurs without inducing further damage. A simple gel electrophoresis process causes the fragments to begin to migrate out of the lysed cells. As smaller fragments move faster, a comet-like tail develops, which can be visualized by using a dye like SYBR1 Green. The relative size, intensity and length of this tail are directly related to the amount of DNA damage a cell has received.\nAfter lysing the cells and running them on an electrophoresis apparatus for 25 minutes at 20 volts, the DNA fragment “tails” were visualized with SYBR I Green dye under a microscope using a 492 nm laser and stored (FIGS. 2a.-c.). Using a MatLAB script, the images were filtered by their intensity to isolate individual cells (FIG. 3). […] This is indicative of damaged DNA which forms a heterogeneous population of DNA strand lengths.\nEach cell was measured by the width of the “core,” where the larger, less-damaged pieces of DNA remained, and the length of the “tail” produced from the migration of the smaller fragments. These values were compared in several ratios and a Student t-test was performed (Table 1). From those t-values an Integral of Student's Probability Density was calculated assuming an unequal variance between the different protections. This latter value determines the probability that the data comes from the same population as the control data. For the sunblock-protected cells, there is just an 11% chance when comparing the ratio of tail length to total length of the “comet” to the same ratio for the control. For the unprotected cells, the probability drops to just 4.7%. But, for the dye-protected cells, there was a 96.6% came from the same population, indicating the dye provided the best protection, keeping the cells closest to their original state.",
  "key": {"[1]": {"details": "Student t-test vs unexposed control cells, Solar Simulator 22.5 minutes at full intensity"}, "[2]": {"details": "probability that data come from the same population as the control, unequal variance assumed"}},
  "data": [
    {"smiles": "O=S(=O)([O-])c1ccccc1C=Cc1ccc(-c2ccc(C=Cc3ccccc3S(=O)(=O)[O-])cc2)cc1.[Na+].[Na+]", "note": "[Stilbene 420, 2,2″-([1,1′-biphenyl]-4.4′-dyldi-2,1-ethenediyl)bis-benzenesulfonic acid disodium salt]", "values": [
      {"measurement": "Comet tail appearance / extent of DNA damage (in words)", "result": "narrower, shorter tail"},
      {"measurement": "Comet tail appearance / extent of DNA damage (in words)", "setting": "listed as stillbene", "result": "do not form tails"},
      {"measurement": "Tail Length/Core Width T-Value", "setting": "[1]", "result": 0.2257},
      {"measurement": "Tail Length/Total Length T-Value", "setting": "[1]", "result": 0.0437},
      {"measurement": "Difference T-value", "setting": "Student t-test vs unexposed control cells, comet tail/core measures, Solar Simulator 22.5 minutes at full intensity", "result": 0.1870},
      {"measurement": "Integral of Student's Probability Density for Difference", "setting": "[2]", "result": 85.83, "unit": "%"},
      {"measurement": "Integral of Student's Probability Density for Tail Length/Core Width", "setting": "[2]", "result": 82.7, "unit": "%"},
      {"measurement": "Integral of Student's Probability Density for Tail Length/Total Length", "setting": "[2]", "result": 96.63, "unit": "%"},
      {"measurement": "Integral of Student's Probability Density for Tail Length/Total Length", "setting": "probability that data come from the same population as the control, unequal variance assumed, listed as dye", "result": 96.6, "unit": "%"},
      {"measurement": "Greater chance of being from the same population of unexposed cells than the sunblock protected cells", "setting": "statistical comparison of Stilbene-protected vs sunblock-protected cells", "result": "more than a forty percent greater chance"}
    ]}
  ]
}
